# Experimental data as given in patent EP4159213A1, “PHARMACEUTICAL COMPOSITIONS FOR USE IN PREVENTION AND/OR TREATMENT AND/OR CURE OF HEPATITIS B VIRUS” (Katholieke Universiteit Leuven, priority 2021, dated 2023).
# Read-outs that look alike come from different tables or passages of the source. Residues, ends and D or L forms follow the SMILES beside them.
# Experiments:
# Type in all cases: cell-based
# human NTCP [1] = biological target: T1, human NTCP (Homo sapiens, UniProt Q14973); assay: Inhibition of tauro-nor-THCA-24-DBD uptake in NTCP-transfected CHO cells; design: expressed in transfected cells; host or cells: CHO cells, geneticin selection, expression induced with sodium butyrate; conditions: for concentration-dependent inhibition of tauro-nor-THCA-24-DBD uptake: multiple inhibitor concentrations
# T1 sequence (Q14973 1-349): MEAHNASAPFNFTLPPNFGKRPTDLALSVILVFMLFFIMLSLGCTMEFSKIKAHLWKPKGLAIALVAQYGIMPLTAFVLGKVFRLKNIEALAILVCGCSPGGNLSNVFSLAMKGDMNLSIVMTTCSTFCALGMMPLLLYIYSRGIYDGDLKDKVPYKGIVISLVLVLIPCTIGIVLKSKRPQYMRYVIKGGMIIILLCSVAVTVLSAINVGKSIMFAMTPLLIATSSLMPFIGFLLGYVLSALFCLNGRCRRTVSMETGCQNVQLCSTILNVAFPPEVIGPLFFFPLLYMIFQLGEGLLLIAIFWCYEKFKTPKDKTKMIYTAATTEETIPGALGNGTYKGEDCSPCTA
# Method: (§1) The cells were placed in an incubator at 37 °C and 5% CO2. The culture medium consisted of DMEM with 1 g·L^-1 glucose and 25 mM HEPES, supplemented with 10% FBS, 0.05 mg·mL^-1 L-proline, 100 IU·mL^-1 penicillin, 100 […], 2 mM glutamine, 0.11 mg·mL^-1 sodium pyruvate. To ensure selection of NTCP-transfected cells, 0.5 mg·mL^-1 geneticin was added to the medium of the transfected cells. Cells were seeded in black 96-well plates with transparent bottom at a density of 6000 cells·well^-1 and 4000 cells·well^-1 for wild-type and transfected cells, respectively. The medium was replaced every other day and 5 mM sodium butyrate was added to induce protein expression at least 36 h before the start of the experiments. Experiments were performed on day 4 or 5 after seeding when confluence was reached.
# Furthermore, to analyse the uptake experiments in NTCP-transfected CHO cells, cells were rinsed twice with 200 µL-well^-1 uptake buffer (HBSS containing 10 mM HEPES, pH 7.4) at 37 °C and subsequently preincubated with 100 µL uptake buffer for 15 minutes. For inhibition experiments, compounds were added at double concentration during preincubation. Uptake was initiated by adding 100 µL double-concentrated tauro-nor-THCA-24-DBD solution in uptake buffer. Cells were incubated for 15 minutes. The reaction was quenched by aspirating the incubation mixture and washing four times with ice cold uptake buffer. The cells were lysed with 100 µL 0.5% Triton X-100 in PBS and placed on a plate shaker (300 rpm) at room temperature for 30 minutes. Uptake of tauro-nor-THCA-24-DBD was determined using fluorescence spectroscopy (excitation 440 nm, emission 580 nm) using a Tecan Infinite 200 plate reader (Tecan Benelux, Mechelen, Belgium). Protein content of each well was determined with the BCA Protein assay (Thermo Fisher Scientific, Waltham, MA) performed according to the manufacturer's protocol. Uptake kinetics of tauro-nor-THCA-24-DBD were determined by incubating eight different concentrations in the absence of any compound. […] All conditions were tested in triplicate.
# Uptake of tauro-nor-THCA-24-DBD in presence of compounds was expressed to uptake of the control for each batch, i.e. when no compound was present.
# For determination of the IC50, the uptake in presence of various concentrations of inhibitor was fitted to the sigmoid Emax model: E = Emax −(Emax−E0) × (([I])^n)/(([I])^n + IC50^n) [formula] with E the uptake of tauro-nor-THCA-24-DBD, E0 the uptake at maximal inhibition by the compound, Emax the uptake at minimal inhibition, IC50 the concentration of the inhibitor at half maximal inhibition, n the Hill coefficient and [I] the concentration of the inhibitor. All curves were fitted with nonlinear least squares regression using R version 3.5.1.
# Assuming competitive inhibition, the Cheng-Prusoff equation was used to determine the Ki value: Ki = (IC50)/(1 + ([S])/(Km)) [formula] where Ki is the binding affinity of the inhibitor, IC50 the concentration of the inhibitor at half maximal inhibition, [S] the substrate concentration, and Km the Michaelis-Menten constant of the substrate.
# human NTCP [2] = biological target: T1, human NTCP; assay: Uptake kinetics of tauro-nor-THCA-24-DBD in NTCP-transfected CHO cells; design: expressed in transfected cells; host or cells: CHO cells, geneticin selection, expression induced with sodium butyrate
# Method: as §1, with “To culture of NTCP-transfected CHO cells, wild-type and human NTCP-transfected CHO cells were cultured from passage 20 to 45 in T-75 flasks (Greiner-Bio-One, Wemmel, Belgium) as prescribed previously (Treiber et al., 2007). The cells” for “The cells”
# (§2) Furthermore, to analyse the uptake experiments in NTCP-transfected CHO cells, cells were rinsed twice with 200 µL-well^-1 uptake buffer (HBSS containing 10 mM HEPES, pH 7.4) at 37 °C and subsequently preincubated with 100 µL uptake buffer for 15 minutes. For inhibition experiments, compounds were added at double concentration during preincubation. […] Uptake of tauro-nor-THCA-24-DBD was determined using fluorescence spectroscopy (excitation 440 nm, emission 580 nm) using a Tecan Infinite 200 plate reader (Tecan Benelux, Mechelen, Belgium). Protein content of each well was determined with the BCA Protein assay (Thermo Fisher Scientific, Waltham, MA) performed according to the manufacturer's protocol. Uptake kinetics of tauro-nor-THCA-24-DBD were determined by incubating eight different concentrations in the absence of any compound. The inhibitory potential of all compounds of the Spectrum Collection (n = 2000) and the ChemDiv library (n = 556) were determined at equimolar concentrations with 3 µM tauro-nor-THCA-24-DBD. […]
# human NTCP [3] = biological target: T1, human NTCP; assay: Inhibition of tauro-nor-THCA-24-DBD uptake in NTCP-transfected CHO cells; design: expressed in transfected cells; host or cells: CHO cells, geneticin-selected, expression induced with sodium butyrate
# Method: as §1, with “The medium was replaced every other day and 5 mM sodium butyrate was added to induce protein expression at least 36 h before the start of the experiments. Experiments were performed on day 4 or 5 after seeding when confluence was reached.” left out
# as §2, with “minutes.” for “minutes. For inhibition experiments, compounds were added at double concentration during preincubation.”, “compound.” for “compound. The inhibitory potential of all compounds of the Spectrum Collection (n = 2000) and the ChemDiv library (n = 556) were determined at equimolar concentrations with 3 µM tauro-nor-THCA-24-DBD.”
# [4] = compound at equimolar concentration with 3 µM tauro-nor-THCA-24-DBD, triplicate
# [5] = 3 µM tauro-nor-THCA-24-DBD, Cheng-Prusoff from IC50, screening hits, read-out: Ki
# [6] = concentration dependent uptake, 15 minutes, NTCP-transfected CHO cells, Michaelis-Menten fit
compound,measurement,setting,value
COc1cc(OC)c2ccc(=O)oc2c1 [Citropten],Uptake of tauro-nor-THCA-24-DBD (% of control),human NTCP [1]; [4],46.97 % of control
O=C(OC[C@H]1O[C@@H](OC(=O)c2cc(O)c(O)c(OC(=O)c3cc(O)c(O)c(O)c3)c2)[C@H](OC(=O)c2cc(O)c(O)c(OC(=O)c3cc(O)c(O)c(O)c3)c2)[C@@H](OC(=O)c2cc(O)c(O)c(OC(=O)c3cc(O)c(O)c(O)c3)c2)[C@@H]1OC(=O)c1cc(O)c(O)c(OC(=O)c2cc(O)c(O)c(O)c2)c1)c1cc(O)c(O)c(OC(=O)c2cc(O)c(O)c(O)c2)c1 [Tannic acid],Ki,human NTCP [1]; [5],0.35 µM
same,Uptake of tauro-nor-THCA-24-DBD (% of control),human NTCP [1]; [4],8.31 % of control
O=C(O)c1ccccc1Nc1cccc(C(F)(F)F)c1 [Flufenamic acid],Ki,human NTCP [1]; [5],7.51 µM
same,Uptake of tauro-nor-THCA-24-DBD (% of control),human NTCP [1]; [4],44.12 % of control
N[C@@H](Cc1ccccc1)C(=O)N[C@@H](Cc1ccc(O)cc1)C(=O)O [Phenylalanyltyrosine] (H-Phe-Tyr-OH),Uptake of tauro-nor-THCA-24-DBD (% of control),human NTCP [1]; [4],47.22 % of control
CC(=O)O[C@H]1C[C@H](O[C@H]2[C@@H](O)C[C@H](O[C@H]3[C@@H](O)C[C@H](O[C@H]4CC[C@@]5(C)[C@H](CC[C@@H]6[C@@H]5C[C@@H](O)[C@]5(C)[C@@H](C7=CC(=O)OC7)CC[C@]65O)C4)O[C@@H]3C)O[C@@H]2C)O[C@H](C)[C@H]1O[C@@H]1O[C@H](CO)[C@@H](O)[C@H](O)[C@H]1O [Lanatoside c],Ki,human NTCP [1],125 µM
same,Uptake of tauro-nor-THCA-24-DBD (% of control),human NTCP [1],45.13 % of control
tauro-nor-THCA-24-DBD,Km,human NTCP [2]; [6],9.2 ± 1.8 µM
same,Vmax,human NTCP [2]; [6],322.1 ± 18.3 pmol·mg protein^-1·min^-1
same,uptake clearance,human NTCP [2]; corresponds to Vmax and Km,35.0 µL·mg protein^-1· min^-1
Gramicidin,Ki,"human NTCP [3]; 3 µM tauro-nor-THCA-24-DBD, Cheng-Prusoff from IC50, screening hits",7.59 µM
same,Uptake of tauro-nor-THCA-24-DBD (% of control),human NTCP [3]; [4],37.54 % of control
Cc1cc2c(C(C)C)c(O)c(O)c(C=O)c2c(O)c1-c1c(C)cc2c(C(C)C)c(O)c(O)c(C=O)c2c1O [Gossypol],Ki,human NTCP [1]; [5],0.4 µM
same,Uptake of tauro-nor-THCA-24-DBD (% of control),human NTCP [1]; [4],12.48 % of control
O=C1c2c(O)cc(O)cc2OC(c2ccc(O)cc2)C1c1c(O)cc(O)c2c(=O)cc(-c3ccc(O)c(O)c3)oc12 (centres unmarked) [fukugetin],concentration-dependent inhibition of tauro-nor-THCA-24-DBD uptake,human NTCP [1]; 3 µM tauro-nor-THCA-24-DBD,showed concentration-dependent inhibition
COc1c(CC=C(C)C)c2c(c3oc(=O)c(-c4ccc(O)cc4)c(O)c13)C=CC(C)(C)O2 [Scandenin],Uptake of tauro-nor-THCA-24-DBD (% of control),human NTCP [1]; [4],38.92 % of control
O=c1c(O)c(-c2ccc(O)c(O)c2)oc2cc(O)cc(O)c12 [quercetin],concentration-dependent inhibition of tauro-nor-THCA-24-DBD uptake,human NTCP [1]; 3 µM tauro-nor-THCA-24-DBD,did not show concentration-dependent inhibition
Oligomycin (A shown),Ki,human NTCP [1]; [5],0.26 µM
same,Uptake of tauro-nor-THCA-24-DBD (% of control),human NTCP [1]; [4],33.87 % of control
